This is an account of results in patent US12419893B2, “Methods and compositions for maximizing the prevention and/or reduction of various maladies and drug side-effects using uridine” (Tosk, Inc., priority 2018, dated 2025).

The test system of one data set is female CD-1 mice. The data set can be described thus: Protection from 5-FU induced weight loss, study I (FIG. 2). It is filed as in vivo. The conditions noted are these: n=6. The protocol:
The aim of this study was to explore whether uridine combined with a uridine phosphorylase inhibitor provided better protection from weight loss produced by 5-FU compared to uridine alone. Weight loss is one of the cardinal features of mucositis.
Four groups of female CD-1 mice were treated with daily ip injections of either PBS vehicle (Group 1), 80 mg/kg, 5-FU qdx5 (Groups 2), or 80 mg/kg, 5-FU qdx5 combined with 750 mg/kg uridine, bid, or 80 mg/kg, 5-FU qdx5 combined with 750 mg/kg uridine and 120 mg/kg bid TK-90, a representative 2,2′-anhydropyrimidine test article, sandwiched before and after the uridine doses. Controls include PBS alone at times mimicking the time for 5-FU and combined uridine and TK-90 treatments. There was n=6 animals in all groups.
Animals were sacrificed on Day 5 by cervical dislocation and properly disposed. Animal weights were recorded daily for 5 days and the % difference between Day 0 and Day 5 at termination calculated.
Results from the study are provided as percent weight gain/loss from pre-dose weight on Day 0 in FIG. 2. […] The statistical difference between Groups 2 and 3 was much less robust (p=0.036).

The test system of another data set is C57BL/6 female mice. Put plainly: Protection from decrease in plasma citrulline caused by 5-FU (FIG. 4). It counts as in vivo. The method, then:
The chemotherapeutic challenge, 5-FU, was diminished plasma citrulline. […] Citrulline is a well-accepted surrogate marker for mucositis.
FIG. 4 depicts citrulline concentrations measured in plasma obtained at sacrifice on Day 3 from C57BL/6 female mice, approximately 20 g, treated on Day 0 with 200 mg/kg 5-FU, ip. On Days 0-2, the uridine and uridine+TK-90 group animals were dosed with […], bid. On Days 0-2, the uridine+TK-90 group animals were treated with 700 mg/kg TK-90, bid, in addition to the 5-FU on Day 0 and the uridine on Days 0-2. Animals in the PBS group were treated on Day 0-2 with PBS, bid. Data from all six mice in the PBS, uridine and uridine plus TK-90 groups were considered. Data from only five animals in the 5-FU group were considered because results from one animal was considered an outlier (unusually low response from the injected 5-FU). Plasma citrulline is a marker for mucosal health. […]
Thawed plasma samples from the study were analyzed for citrulline using a published LC/MS/MS-Isotope assay. (Jones et al., “Development and validation of a LC-MS/MS assay for quantitation of plasma citrulline for application to animal models of the acute radiation syndrome across multiple species,” Anal Bioanal Chem. (2014) 406 (19): 4663-75.).

For data set [1] the following is noted: cited from earlier work.
The conditions of data set [2]: man and animals (Deng et al. 2017); cited from earlier work.

Take `O=c1[nH]cc(F)c(=O)[nH]1` [Compound 5-FU, 5-fluoro-2,4 (1H,3H)-Pyrimidinedione]: the “weight loss compared to the PBS vehicle control (percent weight change Day 5 vs Day 0)” value in the data set with female CD-1 mice (80 mg/kg 5-FU qdx5 ip) is listed as “robust weight loss”. Further, the “plasma citrulline compared to the PBS vehicle control” value in the data set with C57BL/6 female mice (200 mg/kg 5-FU ip Day 0, plasma at Day 3, n=5) was “significant reduction in citrulline”.

`O=c1ccn([C@@H]2O[C@H](CO)[C@@H](O)[C@H]2O)c(=O)[nH]1` [uridine]: in data set [1] (continuous infusion), the “toxicities of continuous infusions of high-dose uridine” value is “high fever, cellulitis, and superior vena cava syndrome”. The “toxicity of high-dose oral uridine in clinical studies” value in data set [1] (oral, patients) was “severe patient diarrhea, phlebitis, and pyrogenic reactions”. The “half-life of administered uridine” value in data set [2] was around 3 min. Moreover, the “protection from 5-FU induced weight loss compared to the 5-FU group alone” value in the data set on female CD-1 mice (Day 5 vs Day 0, 5-FU 80 mg/kg qdx5, uridine 750 mg/kg bid, TK-90 120 mg/kg bid, ip) is listed as “statistically significant but much less”. Also, in the data set with C57BL/6 female mice (5-FU 200 mg/kg ip Day 0, uridine 250 mg bid Days 0-2, TK-90 700 mg/kg bid Days 0-2, plasma Day 3, n=6), the “protection from 5-FU lowered plasma citrulline” value is given as “provided protection”.
